From US7601686B2, “Hepatitis C virus inhibitors” (Bristol-Myers Squibb Company, priority 2005, dated 2009)
pEC50, pIC50: −log10 of the molar value. Like-named read-outs stand apart in the source and are kept apart here.

Experiments:
[1] = tested on: human pancreatic chymotrypsin; assay: Specificity assay, chymotrypsin; type: biochemical; conditions: 2 h enzyme-inhibitor pre-incubation; read-out: Chymotrypsin activity in the specificity assays
Protocol: The specificities of compounds of the present disclosure were determined against a variety of serine proteases: human neutrophil elastase (HNE), porcine pancreatic elastase (PPE) and human pancreatic chymotrypsin and one cysteine protease: human liver cathepsin B. In all cases a 96-well plate format protocol using colorimetric p-nitroaniline (pNA) substrate specific for each enzyme was used as described previously (PCT Patent Application No. WO 00/09543) with some modifications to the serine protease assays. All enzymes were purchased from Sigma while the substrates were from Bachem.
Each assay included a 2 h enzyme-inhibitor pre-incubation at room temperature followed by addition of substrate and hydrolysis to ˜30% conversion as measured on a Spectramax Pro microplate reader. Compound concentrations varied from 100 to 0.4 μM depending on their potency.
The final conditions for each assay were the same as those described in WO 03/099274, page 623.
The percentage of inhibition was calculated using the formula: [1−((UVinh−UVblank)/(UVctl−UVblank))]×100
A non-linear curve fit was applied to the inhibition-concentration data, and the 50% effective concentration (IC50) was calculated by the use of Excel XLfit software.

[2] = tested on: HCV replicon in HUH-7 cells; assay: HCV replicon FRET assay; type: cell-based, Hepatitis C virus (strain 1b); conditions: Hepatitis C virus
How it was run: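 HUH-7 cells stably carrying a genotype 1b subgenomic HCV replicon (neo selection) treated with compound for 4 days at 37 °C, 0.5% DMSO final. Cytotoxicity (CC50) from alamar Blue fluorescence after 4 h (ex 530/em 580 nm), before the FRET replication read-out.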

Q: Which results are given for `C=CC1CC1(NC(=O)[C@@H]1C[C@@H](NC(=O)c2cc(-c3ccccc3)nc3ccccc23)CN1C(=O)[C@@H](NC(=O)CC1CC1)C(C)(C)C)C(=O)NS(=O)(=O)C1CC1` (stereo partly drawn) [Compound 9]?
A: pIC50 [1]: 4.19; pEC50 ([2]; HCV replicon cell assay, HUH-7, read-out: EC50 Range): 4.82 to 6.82; pEC50 ([2]; HCV replicon, HUH-7 cells, read-out: EC50 value in the replicon assay): 5.65
